Reference: patent US11076595B2, “1-(n,n-disubstituted carbamoyl) 4-(substituted sulfonyl)triazolin-5-one derivative, 4-(n,n-disubstituted carbamoyl) 1-(substituted sulfonyl)triazolin-5-one derivative, and herbicide containing said derivative as active ingredient” (HOKKO CHEMICAL INDUSTRY CO., LTD., priority 2017, dated 2021)

Legend:
Assay type in all cases: in vivo
[1] = system: Echinochloa crus-galli; experiment: Test Example 1: herbicidal effect test by soil treatment in paddy field; conditions: 120 g/10a, paddy soil treatment just after sowing, 14 days after treatment
From the text: (§1) A Wagner pot having an area of 1/10000 are was filled with paddy field soil and after adding water, a chemical fertilizer (N:P:K=17:17:17) was mixed, followed by puddling. Thereafter, 30 grains of each of Echinochloa crus-galli, broad-leaved weed (Lindernia pyxidaria and Monochoria vaginalis) and Scirpus juncoides seeds were sown to a depth of 0 to 1 cm. Immediately after the sowing, the pot was flooded, and the depth of water was kept at about 3 cm. The pot was subsequently managed in a glass greenhouse. Just after that, an emulsifiable concentrate prepared according to Formulation Example 5 by using the compound shown in Table 5 below was diluted with water, and a predetermined amount of the water-diluted formulation was added dropwise. The application rate of the active ingredient, by conversion, corresponded to 120 g per 10 are.
(§2) This test was performed with two replications per one formulation concentration plot, and 14 days after the formulation treatments, the weed suppression rate (%) was determined according to the following equation (Math. 1). Weed suppression rate (%)=(1−an average dry weight (g) of plants in treated plots/an average dry weight (g) of plants in untreated plots)×100 [Math. 1]

[2] = system: Lindernia pyxidaria; experiment: as above; conditions: 120 g/10a, paddy soil treatment just after sowing, 14 days after treatment
From the text: as §1, §2

[3] = system: Monochoria vaginalis; experiment: as above; conditions: 120 g/10a, paddy soil treatment just after sowing, 14 days after treatment
From the text: as §1, §2

[4] = system: Scirpus juncoides; experiment: as above; conditions: 120 g/10a, paddy soil treatment just after sowing, 14 days after treatment
From the text: as §1, §2

[5] = system: Echinochloa crus-galli; experiment: Test Example 2: herbicidal effect test by treatment during growing period in paddy field; conditions: treatment 7 days after sowing, 120 g/10a, evaluated 14 days after treatment
Description: as §2
as §1, with “greenhouse. Seven days” for “greenhouse. Just”, “after sowing,” for “after that,”, “Table 6” for “Table 5”, “are. The test was performed with two replications per one formulation concentration plot, and 14 days after the formulation treatments, the weed suppression rate (%) was determined according to the equation (Math. 1).” for “are.”

[6] = system: Lindernia pyxidaria; experiment: as above; conditions: treatment 7 days after sowing, 120 g/10a, evaluated 14 days after treatment
Description: as §2
as §1, with “greenhouse. Seven days” for “greenhouse. Just”, “after sowing,” for “after that,”, “Table 6” for “Table 5”, “are. The test was performed with two replications per one formulation concentration plot, and 14 days after the formulation treatments, the weed suppression rate (%) was determined according to the equation (Math. 1).” for “are.”

[7] = system: Monochoria vaginalis; experiment: as above; conditions: treatment 7 days after sowing, 120 g/10a, evaluated 14 days after treatment
Description: as §2
as §1, with “greenhouse. Seven days” for “greenhouse. Just”, “after sowing,” for “after that,”, “Table 6” for “Table 5”, “are. The test was performed with two replications per one formulation concentration plot, and 14 days after the formulation treatments, the weed suppression rate (%) was determined according to the equation (Math. 1).” for “are.”

[8] = system: Scirpus juncoides; experiment: as above; conditions: treatment 7 days after sowing, 120 g/10a, evaluated 14 days after treatment
Description: as §2
as §1, with “greenhouse. Seven days” for “greenhouse. Just”, “after sowing,” for “after that,”, “Table 6” for “Table 5”, “are. The test was performed with two replications per one formulation concentration plot, and 14 days after the formulation treatments, the weed suppression rate (%) was determined according to the equation (Math. 1).” for “are.”

| Compound | weed suppression rate, Echinochloa crus-galli [1] | weed suppression rate, Lindemia pyxidaria [2] | weed suppression rate, Monochoria vaginalis [3] | weed suppression rate, Scirpus juncoides [4] | weed suppression rate, Echinochloa crus-galli [5] | weed suppression rate, Lindemia pyxidaria [6] | weed suppression rate, Monochoria vaginalis [7] | weed suppression rate, Scirpus juncoides [8] |
| --- | --- | --- | --- | --- | --- | --- | --- | --- |
| Cc1cc(F)ccc1N(C(=O)n1ncn(S(=O)(=O)C2CC2)c1=O)C(C)C [Compound 1-220] | 100% | 100% | 80% | 90% | 100% | 90% | 100% | 90% |
| CC(C)N(Cc1ccc(F)cc1F)C(=O)n1ncn(S(=O)(=O)C2CC2)c1=O [Compound 1-238] | 90% | 80% | 80% | 90% | 90% | 80% | 90% | 90% |
| Cc1cc(C)c(S(=O)(=O)n2cnn(C(=O)N(c3cccnc3F)C(C)C)c2=O)c(C)c1 [Compound 1-921] | 90% | 80% | 60% | 70% | 80% | 80% | 60% | 70% |
| CC(C)N(C(=O)n1ncn(S(=O)(=O)N(C)C)c1=O)c1ccc(Cl)nc1 [Compound 1-1135] | 90% | 90% | 60% | 90% | 90% | 60% | 70% | 90% |
| Cc1cc(N(C(=O)n2ncn(S(=O)(=O)C3CC3)c2=O)C(C)C)no1 [Compound 1-250] | 90% | 80% | 80% | 90% | 90% | 90% | 90% | 80% |
| CC(C)N(C(=O)n1ncn(S(=O)(=O)C(C)C)c1=O)c1ccccc1F [Compound 1-55] | 90% | 90% | 90% | 90% | 90% | 90% | 90% | 90% |
| Cc1ccc(S(=O)(=O)n2cnn(C(=O)N(c3ccc(Cl)nc3Cl)C(C)C)c2=O)cc1 [Compound 1-690] | 100% | 100% | 90% | 90% | 100% | 90% | 90% | 90% |
| Cc1ccc(N(C(=O)n2ncn(S(=O)(=O)C3CCCCC3)c2=O)C(C)C)c(F)c1 [Compound 1-320] | 90% | 90% | 90% | 90% | 90% | 80% | 80% | 90% |
| CC(C)N(C(=O)n1ncn(S(=O)(=O)C2CCCCC2)c1=O)c1ccc(Cl)nc1 [Compound 1-338] | 100% | 90% | 90% | 100% | 90% | 80% | 80% | 90% |
| CC(C)N(C(=O)n1ncn(S(=O)(=O)C2CCCCC2)c1=O)c1ccc(Cl)cc1F [Compound 1-314] | 100% | 100% | 80% | 100% | 90% | 100% | 90% | 100% |
| CC(C)N(C(=O)n1ncn(S(=O)(=O)N(C)C)c1=O)c1ccc(F)nc1 [Compound 1-1129] | 90% | 80% | 80% | 90% | 90% | 80% | 80% | 90% |
| CC(C)N(C(=O)n1ncn(S(=O)(=O)c2cccs2)c1=O)c1ccc(F)cc1 [Compound 1-1052] | 90% | 80% | 80% | 90% | 90% | 80% | 80% | 90% |
| Cc1ccc(N(C(=O)n2ncn(S(=O)(=O)C3CC3)c2=O)C(C)C)c(Cl)c1 [Compound 1-223] | 100% | 80% | 80% | 90% | 90% | 80% | 80% | 90% |
| CC(C)N(C(=O)n1ncn(S(=O)(=O)C2CCCCC2)c1=O)c1ccccc1F [Compound 1-296] | 90% | 80% | 80% | 90% | 90% | 90% | 90% | 90% |
| CC(C)N(C(=O)n1ncn(S(=O)(=O)C(C)C)c1=O)c1ccc(Cl)cc1F [Compound 1-73] | 100% | 100% | 90% | 80% | 100% | 80% | 90% | 100% |
| CC(C)N(C(=O)n1ncn(S(=O)(=O)C2CC2)c1=O)c1ccc(Cl)cc1Br [Compound 1-219] | 100% | 100% | 100% | 100% | 100% | 90% | 90% | 100% |
| Cc1ccc(N(C(=O)n2ncn(S(=O)(=O)C(C)C)c2=O)C(C)C)c(Cl)c1 [Compound 1-81] | 90% | 80% | 80% | 90% | 90% | 80% | 80% | 90% |
| Cc1ccc(N(C(=O)n2ncn(S(=O)(=O)C3CCCCC3)c2=O)C(C)C)c(Cl)c1 [Compound 1-322] | 90% | 90% | 90% | 90% | 90% | 80% | 80% | 90% |
